Test results reported in PubChem BioAssay (NCI).
Where “and” joins values, the source holds several entries; their conditions need not be identical. Equal values may be shown once.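 Following 48 hours of exposure in 96-well plates, responses at five concentrations were used to interpolate endpoints linearly. GI50 = concentration required for 50% inhibition of growth. TGI denotes the concentration required for complete inhibition of growth.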

System: SNB-19 CNS
Assay: inhibition of tumour cell growth, NCI panel, 48 h

SMILES	GI50	TGI
O=C(OCc1ccc2c(Cl)cc(Cl)c(O)c2n1)N1CCN(C(=O)c2cc3cc(F)ccc3[nH]2)CC1	4.13 µM	> 100 µM
CC1=C(C(=O)Nc2ccccc2)C(c2ccc(C3C(C(=O)Nc4ccccc4)=C(C)NC(C)=C3C(=O)Nc3ccccc3)cc2)C(C(=O)Nc2ccccc2)=C(C)N1	–	20.5 µM
COc1ccc(Cc2cnc(NC(=O)c3ccc4c(c3)OCCO4)s2)cc1	0.0523 µM	43.2 µM
O=C(O)C12CC3(C(=O)O)CC(C(=O)O)(CC(C(=O)O)(C1)C3=O)C2=O	–	> 100 µM
COCOc1ccc(C2(O)Oc3cc(OCOC)ccc3C2C)c(O)c1 (stereo unspecified)	–	29.4 µM
C[C@]12CC[C@@H]3c4ccc(O)c([N+](=O)[O-])c4CC[C@H]3[C@@H]1CC[C@@H]2NS(=O)(=O)c1cccc(Br)c1	3.53 µM	14.1 µM
C[C@H]1CCC/C=C/[C@@H]2C[C@H](O)C[C@H]2[C@H](O)[C@@H](SCC(O)CO)CC(=O)O1 (stereo partly specified)	27.1 µM	70.9 µM
N#Cc1ccc(OC(=O)Nc2ccc(Cl)c(Cl)c2)cc1	3.1 µM	> 100 µM
CC[C@@]1(O)C(=O)OCc2c1cc1n(c2=O)Cc2c-1nc1cc(F)c(C)c3c1c2[C@@H](N)CC3	< 0.01 µM	> 100 µM
COc1cc(C2C(C(=O)Nc3cc(F)c(F)cc3F)=C(C)NC(C)=C2C(=O)Nc2cc(F)c(F)cc2F)ccc1O	–	> 100 µM
Nc1ccc2nc3n(c2c1)C(=O)c1ccccc1-3	–	> 100 µM
Cn1cc(-c2ccc(-c3cncc(Cl)c3N3CCC4(CCNC4=O)CC3)cc2)cn1	> 100 µM	> 100 µM
CC/C=C/C/C=C/C/C=C/C/C=C/C/C=C/C/C=C/CCC(=O)Nc1ccn([C@@H]2O[C@H](CO)[C@@H](O)C2(F)F)c(=O)n1	0.0278 µM	26.6 µM
O=c1nc(-c2ccccc2)cc(-c2ccccc2O)[nH]1	–	> 100 µM
C/C(=N\NC(=S)N1CC2CCC(CC2)C1)c1ccccn1	0.345 µM	3.78 µM
O=C(NCc1ccc(S(=O)(=O)c2cc(F)cc(F)c2)cc1)c1ccc2nccn2c1	2.56 µM	> 100 µM
NC(=S)N/N=C/c1cc(-c2cccc(N)c2)ccn1	4.24 µM	> 100 µM
C=CCn1c2c(sc1=S)C(S)N=CN2 (stereo unspecified)	–	> 100 µM
Cc1nn(C(=O)c2ccc(Cl)cc2)c2c1C(c1ccc(O)cc1)SC(N)=N2 (stereo unspecified)	–	> 10 µM
O=[N+]([O-])c1ccc(CSCc2ccc(Cl)cc2)cc1	–	> 100 µM
CCOc1ccccc1NC(=O)C(C#N)C1=C(Cl)C(=O)c2ccccc2C1=O (stereo unspecified)	3.07 µM	3.6 µM and 10.2 µM

System: KM12 colon
Assay: inhibition of tumour cell growth, NCI panel, 48 h

SMILES	GI50	TGI
O=C(OCc1ccc2c(Cl)cc(Cl)c(O)c2n1)N1CCN(C(=O)c2cc3cc(F)ccc3[nH]2)CC1	0.58 µM	> 41.3 µM
CC1=C(C(=O)Nc2ccccc2)C(c2ccc(C3C(C(=O)Nc4ccccc4)=C(C)NC(C)=C3C(=O)Nc3ccccc3)cc2)C(C(=O)Nc2ccccc2)=C(C)N1	–	5.01 µM
COc1ccc(Cc2cnc(NC(=O)c3ccc4c(c3)OCCO4)s2)cc1	0.0264 µM	11.1 µM
O=C(O)C12CC3(C(=O)O)CC(C(=O)O)(CC(C(=O)O)(C1)C3=O)C2=O	–	> 100 µM
COCOc1ccc(C2(O)Oc3cc(OCOC)ccc3C2C)c(O)c1 (stereo unspecified)	–	31.7 µM
C[C@]12CC[C@@H]3c4ccc(O)c([N+](=O)[O-])c4CC[C@H]3[C@@H]1CC[C@@H]2NS(=O)(=O)c1cccc(Br)c1	1.89 µM	4.05 µM
C[C@H]1CCC/C=C/[C@@H]2C[C@H](O)C[C@H]2[C@H](O)[C@@H](SCC(O)CO)CC(=O)O1 (stereo partly specified)	3.81 µM	20 µM
N#Cc1ccc(OC(=O)Nc2ccc(Cl)c(Cl)c2)cc1	3.27 µM	12.8 µM
CC[C@@]1(O)C(=O)OCc2c1cc1n(c2=O)Cc2c-1nc1cc(F)c(C)c3c1c2[C@@H](N)CC3	0.0203 µM	24.7 µM
COc1cc(C2C(C(=O)Nc3cc(F)c(F)cc3F)=C(C)NC(C)=C2C(=O)Nc2cc(F)c(F)cc2F)ccc1O	–	35.8 µM
Nc1ccc2nc3n(c2c1)C(=O)c1ccccc1-3	–	> 100 µM
Cn1cc(-c2ccc(-c3cncc(Cl)c3N3CCC4(CCNC4=O)CC3)cc2)cn1	33.3 µM	> 100 µM
CC/C=C/C/C=C/C/C=C/C/C=C/C/C=C/C/C=C/CCC(=O)Nc1ccn([C@@H]2O[C@H](CO)[C@@H](O)C2(F)F)c(=O)n1	1.42 µM	39.8 µM
O=c1nc(-c2ccccc2)cc(-c2ccccc2O)[nH]1	–	> 100 µM
C/C(=N\NC(=S)N1CC2CCC(CC2)C1)c1ccccn1	0.0837 µM	1.59 µM
O=C(NCc1ccc(S(=O)(=O)c2cc(F)cc(F)c2)cc1)c1ccc2nccn2c1	0.328 µM	> 100 µM
NC(=S)N/N=C/c1cc(-c2cccc(N)c2)ccn1	1.11 µM	> 41.2 µM
C=CCn1c2c(sc1=S)C(S)N=CN2 (stereo unspecified)	–	> 100 µM
Cc1nn(C(=O)c2ccc(Cl)cc2)c2c1C(c1ccc(O)cc1)SC(N)=N2 (stereo unspecified)	–	> 10 µM
O=[N+]([O-])c1ccc(CSCc2ccc(Cl)cc2)cc1	–	> 100 µM
CCOc1ccccc1NC(=O)C(C#N)C1=C(Cl)C(=O)c2ccccc2C1=O (stereo unspecified)	2.13 µM	3.23 µM and 4.59 µM

System: OVCAR-3 ovarian
Assay: inhibition of tumour cell growth, NCI panel, 48 h

SMILES	GI50	TGI
O=C(OCc1ccc2c(Cl)cc(Cl)c(O)c2n1)N1CCN(C(=O)c2cc3cc(F)ccc3[nH]2)CC1	0.501 µM	3.7 µM
CC1=C(C(=O)Nc2ccccc2)C(c2ccc(C3C(C(=O)Nc4ccccc4)=C(C)NC(C)=C3C(=O)Nc3ccccc3)cc2)C(C(=O)Nc2ccccc2)=C(C)N1	–	14.5 µM
COc1ccc(Cc2cnc(NC(=O)c3ccc4c(c3)OCCO4)s2)cc1	0.0221 µM	0.0658 µM
O=C(O)C12CC3(C(=O)O)CC(C(=O)O)(CC(C(=O)O)(C1)C3=O)C2=O	–	> 100 µM
COCOc1ccc(C2(O)Oc3cc(OCOC)ccc3C2C)c(O)c1 (stereo unspecified)	–	26.2 µM
C[C@]12CC[C@@H]3c4ccc(O)c([N+](=O)[O-])c4CC[C@H]3[C@@H]1CC[C@@H]2NS(=O)(=O)c1cccc(Br)c1	2.43 µM	5.64 µM
C[C@H]1CCC/C=C/[C@@H]2C[C@H](O)C[C@H]2[C@H](O)[C@@H](SCC(O)CO)CC(=O)O1 (stereo partly specified)	22.3 µM	63.3 µM
N#Cc1ccc(OC(=O)Nc2ccc(Cl)c(Cl)c2)cc1	3.01 µM	9.1 µM
CC[C@@]1(O)C(=O)OCc2c1cc1n(c2=O)Cc2c-1nc1cc(F)c(C)c3c1c2[C@@H](N)CC3	0.0339 µM	0.907 µM
